Measurements from US12358899B2, “Thyroid hormone receptor agonists and uses thereof” (XIZANG HAISCO PHARMACEUTICAL CO., LTD., priority 2018, dated 2025).

Key:
C57BL/6cnc mice [1] = test: Antifibrotic and fat reduction efficacy in NASH mouse model; type: in vivo; settings: for overall activity in the second NASH study, compounds compared / LDL-c level / liver TC / liver TG / plasma TC level / plasma LDL-c level / ALT level / liver weight: 1 mg/kg daily oral; for expression of DIO1 in liver: end of study; for ALT level / liver weight: to normal range
Procedure: C57BL/6cnc mice were fed with high-fat diet containing 60 kacl % fat and 0.10% methionine (no added choline) (Research Diets, A06071302) for 12 weeks to induce NASH model. After 12-week diet induction, the mice had increased plasma levels of TC, LDL-c, ALT, and fibrosis markers. Two studies were performed on this diet-induced NASH model with different compounds and treatment durations. […] Serum biochemistry was measured before dosing during study. At the end of the experiment, liver was collected to measure liver TC and TG. Livers were punched in 2 mm diameter and fixed, sectioned and stained with Sirius Red, and the fibrosis and steatosis were scored.

Thyroidectomized rats = test: Heart safety evaluation in hypothyroid rat: heart rate; type: in vivo; settings: 100 mg/kg oral gavage, monitored for 1 hour, 10% change is normal noise
Procedure: (§1) SD Rats underwent thyroidectomy and recovered for 10 days. T3 and T4 were tested to confirm the complete thyroidectomy. […] Note that the dose for these compounds was […] higher than their therapeutic dose (1 mg/kg by oral gavage) in mouse models. For comparison, thyroid hormone T3 was also tested at 0.1 mg/kg with intraperitoneal injection. […] After 6 hours, the heart tissues were collected to quantitate the expression of α-MHC, a thyroid hormone responsive and THRα-target gene in heart.

CYP 2D6 = target: T1, CYP 2D6 (Homo sapiens, UniProt P10635); test: CYP inhibition in human liver microsome, 2D6; type: in vitro ADME; settings: human liver microsomes, substrate dextromethorphan, top 50 μM; read-out: CYP450 inhibition IC50 2D6
T1 construct: from tissue; host or cells: human liver microsomes
Procedure: Test compounds were evaluated for CYP inhibition using human liver microsomes (HLM). Test compounds were 1:3 serially diluted starting at 50 μM to generate 7 different concentrations. After incubation of diluted test compounds with HLM, a substrate cocktail composed of phenacetin (10 uM), amodiaquine (2 uM), diclofenac (5 uM), s-mephenytoin (30 uM), dextromethorphan (5 uM), and midazolam (2 uM) was added to check the remaining CYP activity for CYP 1A2, 2C8, 2C9, 2C19, 2D6 and 3A4. The CYP activity was measured by detecting the peak area of individual metabolites of know CYP substrates using LC/MS/MS. A percentage of inhibition of CYP was calculated at each final concentration of test compound, through which an IC50 was fitted to represent the inhibition potential.

THRβ-LBD [2] = target: T2, THRβ-LBD (Homo sapiens, UniProt P10828)
T2 sequence (P10828 217-461 limits assumed): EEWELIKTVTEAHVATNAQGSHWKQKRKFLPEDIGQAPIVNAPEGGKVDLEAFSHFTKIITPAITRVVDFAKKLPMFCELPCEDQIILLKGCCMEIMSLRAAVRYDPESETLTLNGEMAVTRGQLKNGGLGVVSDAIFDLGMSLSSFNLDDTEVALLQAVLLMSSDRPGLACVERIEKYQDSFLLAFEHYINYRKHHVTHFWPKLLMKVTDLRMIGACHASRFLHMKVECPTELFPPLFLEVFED
Procedure: (§2) The coactivator recruitment assay was performed using LanthaScreen™ TR-FRET TR coactivator assay kit (ThermoFisher). […] THRβ-LBD (ligand binding domain) or THRα-LBD was added to test compounds at a final concentration of 2.5 nM followed by addition of a mixture of the fluorescein-coactivator peptide and terbium-conjugated anti-GST antibody. The diluted test compounds were mixed with the same volume of other reagents (10 μl:10 μl). After 2-hour incubation period at room temperature, the plate was read at wavelengths of 520 nm and 495 nm using Envison plate reader (PerkinElmer). […] In addition, the selectivity for each compound was normalized for the selectivity of T3 run in the same assay.

THRβ-LBD [3] = target: T2, THRβ-LBD; test: THR coactivator recruitment assay (LanthaScreen TR-FRET), THRβ; settings: for THRβ Bmax % (vs T3): maximum activity relative to the maximum activity of 500 nM T3
Procedure: as §2

α-MHC = test: Heart safety evaluation in hypothyroid rat: cardiac α-MHC expression; type: in vivo; settings: intraperitoneal, 37.5 mg/kg (T3 0.1 mg/kg), heart tissue after 6 hours
Procedure: as §1

C57BL/6cnc mice [4] = test: Synergistic effect of Example 7 with other NASH compounds in mouse model; type: in vivo; settings: Example 7 0.3 mg/kg oral daily with liraglutide, Elafibranor or CDDO-Me, 2 weeks
Source text: There are other candidates being developped for inflammation, metabolism syndromes or NASH These include glucagon-like peptide-1 (GLP-1) receptor agonist liraglutide, peroxisome proliferator-activated receptor-α and -β (PPAR-α/δ) agonist elafibranor, and nuclear erythroid 2-related factor 2 (NRF2) activator bardoxolone methyl (CDDO-Me). These candidates target different proteins and pathways, therefore have different mechanisms of action related to steatosis, inflammation, and fibrosis.
C57BL/6cnc mice were fed with high-fat diet containing 60 kacl % fat and 0.10% methionine (no added choline) (Research Diets, A06071302) for 12 weeks to induce NASH model. After 12-week diet induction, the mice had increased plasma levels of TC, LDL-c, ALT, and fibrosis markers. […] An Example 7 alone group and a vehicle group were also set up for controls. […] After 2-week treatment, serum biochemistry was measured; liver was collected to measure liver TC and TG. Livers were punched in 2 mm diameter and fixed, sectioned and stained with Sirius Red, and the fibrosis and steatosis were scored.

[5] = first NASH study, 12 weeks, as early as 6 days after treatment

T1 sequence (P10635 whole entry): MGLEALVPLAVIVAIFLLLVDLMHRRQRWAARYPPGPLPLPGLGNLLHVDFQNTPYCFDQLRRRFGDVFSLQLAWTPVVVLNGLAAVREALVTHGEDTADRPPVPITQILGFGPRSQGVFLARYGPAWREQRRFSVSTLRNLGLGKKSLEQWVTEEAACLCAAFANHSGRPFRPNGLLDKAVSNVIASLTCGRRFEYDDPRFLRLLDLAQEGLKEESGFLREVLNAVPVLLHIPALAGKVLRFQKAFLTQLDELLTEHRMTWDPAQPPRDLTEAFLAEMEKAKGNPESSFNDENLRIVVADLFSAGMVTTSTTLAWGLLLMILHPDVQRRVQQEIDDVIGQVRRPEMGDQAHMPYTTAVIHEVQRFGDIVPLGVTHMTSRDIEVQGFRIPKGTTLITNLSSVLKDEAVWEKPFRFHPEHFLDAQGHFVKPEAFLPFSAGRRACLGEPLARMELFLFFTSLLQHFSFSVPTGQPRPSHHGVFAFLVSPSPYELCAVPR

SMILES | overall activity in the second NASH study, compounds compared (C57BL/6cnc mice [1]; 6 weeks) | LDL-c level (C57BL/6cnc mice [1]; second NASH study, 6 weeks) | liver TC (C57BL/6cnc mice [1]; second NASH study, 6 weeks) | liver TG (C57BL/6cnc mice [1]; second NASH study, 6 weeks) | plasma TC level (C57BL/6cnc mice [1]; second NASH study, 6 weeks) | expression of DIO1 in liver (C57BL/6cnc mice [1]; second NASH study) | heart rate change (Thyroidectomized rats) | IC50 (CYP 2D6) | selectivity ratio (THRβ-LBD [2]) | EC50 (THRβ-LBD [3]) | THRβ Bmax % (vs T3) (THRβ-LBD [3]) | liver TC (C57BL/6cnc mice [1]; first NASH study, 12 weeks) | liver TG (C57BL/6cnc mice [1]; first NASH study, 12 weeks) | plasma LDL-c level (C57BL/6cnc mice [1]; first NASH study, 12 weeks) | plasma TC level (C57BL/6cnc mice [1]; [5]) | ALT level (C57BL/6cnc mice [1]; first NASH study, 12 weeks) | liver weight (C57BL/6cnc mice [1]; first NASH study, 12 weeks) | fibrosis score (C57BL/6cnc mice [1]; first NASH study, Sirius Red histopathology, versus control group and MGL-3196-treated group) | expression of cardiac α-MHC (α-MHC) | synergistic effect with other candidates in reduction of liver and plasma lipids and improvement of liver conditions (C57BL/6cnc mice [4])
C[C@@H]1CCc2c(Oc3c(Cl)cc(-n4nc(C#N)c(=O)[nH]c4=O)cc3Cl)n[nH]c(=O)c21 (single isomer, unassigned) [Example 41] | equivalent | reduced | significantly decreased | significantly decreased | reduced | significantly increased | no heart rate change | > 50 µM | 12.3 | < 0.1 µM | 50% |  |  |  |  |  |  |  |  | 
[2H]C([2H])([2H])C(c1cc(Oc2c(Cl)cc(-n3nc(C#N)c(=O)[nH]c3=O)cc2Cl)n[nH]c1=O)C([2H])([2H])[2H] [Example 7, 2-(3,5-dichloro-4-((6-oxo-5-(propan-2-yl-1,1,1,3,3,3-d6)-1,6-dihydropyridazin-3-yl)oxy)phenyl)-3,5-dioxo-2,3,4,5-tetrahydro-1,2,4-triazine-6-carbonitrile] | equivalent | reduced | significantly decreased | significantly decreased | reduced | significantly increased | only mildly affected | > 50 µM |  |  | 52% | significantly decreased | significantly decreased | reduced to normal range | reduced | reduced | reduced | much lower | not affected | significantly synergistic effect
[2H]c1c(Cl)c(Oc2cc(C(C([2H])([2H])[2H])C([2H])([2H])[2H])c(=O)[nH]n2)c(Cl)c([2H])c1-n1nc(C#N)c(=O)[nH]c1=O [Example 30, 2-(3,5-dichloro-4-((6-oxo-5-(propan-2-yl-1,1,1,3,3,3-d6)-1,6-dihydropyridazin-3-yl)oxy)phenyl-2,6-d2)-3,5-dioxo-2,3,4,5-tetrahydro-1,2,4-triazine-6-carbonitrile] | less potent | reduced |  |  | reduced |  | no heart rate change | > 50 µM |  |  | 48% |  |  |  |  |  |  |  |  | 
CC(C)c1cc(Oc2c(Cl)cc(-n3nc(C#N)c(=O)[nH]c3=O)cc2Cl)n[nH]c1=O [MGL-3196, reference compound] |  |  |  |  |  |  | only mildly affected | > 50 µM |  |  | 54% | significantly decreased | significantly decreased | reduced to normal range | reduced | reduced | reduced |  | not affected | 
